Values after ≈ are worked out from the molar mass of the structure shown. Active and inactive are the calls of the source. The calls are words filed in the database; no cut-off is given here.

In series [1] the test system is Cell membrane. The experiment in a line: Disruption of membrane integrity in Staphylococcus aureus ATCC 25923 assessed as increase in PI uptake at 16 ug/ml measured after 1 hr by SYTO9/PI staining based fluorometric analysis. Conditions: dose 16.0 µg/ml.
In series [2] the test system is Cell membrane. In words: Disruption of membrane integrity in Enterococcus faecalis ATCC 19433 assessed as increase in PI positive cells at 16 ug/ml measured after 1 hr by SYTO9/PI staining based confocal laser scanning microscope analysis. The settings on record: dose 16.0 µg/ml. Format: subcellular.
Series [3] in a line: Hemolytic activity against human RBC at 8 ug/ml incubated for 30 mins (reference value: 0%). The settings on record: human red blood cells (erythrocytes), at 8 µg/mL, read-out: Activity. Format: toxicity, cell-based, Erythrocyte.
A short description of series [4]: Apparent permeability of the compound across bacterial inner membrane mimic pure POPG in PBS buffer assessed as membrane retention at pH 7.4 incubated for 5 hrs by PAMPA based UV-Vis spectrophotometric analysis. The class given is ADME, cell membranes. Conditions: pH 7.4, 5 h. (In general: PAMPA measures passive passage across an artificial lipid membrane.)
Series [5] in a line: Apparent permeability of the compound across bacterial inner membrane mimic PC-phospholipids in PBS buffer assessed as membrane retention at pH 7.4 incubated for 5 hrs by PAMPA based UV-Vis spectrophotometric analysis. Format: ADME, cell membranes. The settings on record: pH 7.4, 5 h.
The next series concerns Pseudomonas aeruginosa. The experiment in a line: Antibacterial activity against Pseudomonas aeruginosa ATCC 27853 assessed as bacterial growth inhibition incubated for 18 hrs by micro-dilution broth method. Format: functional. For orientation: In broth dilution the organism is exposed to a series of concentrations in liquid medium.
Series [6] has as its system Cell membrane. The experiment in a line: Disruption of membrane integrity in Staphylococcus aureus ATCC 25923 assessed as increase in PI uptake at 16 ug/ml measured every 15 mins for 6 hrs by SYTO9/PI staining based fluorometric analysis. Format: subcellular. The settings on record: dose 16.0 µg/ml.
The next series deals with Escherichia coli. The experiment in a line: Antibacterial activity against Escherichia coli CCUG assessed as bacterial growth inhibition incubated for 18 hrs by micro-dilution broth method. The class given is functional.
Series [7] can be described thus: Apparent permeability of the compound across bacterial inner membrane mimic pure POPG in PBS buffer at pH 7.4 incubated for 5 hrs by PAMPA based UV-Vis spectrophotometric analysis. The class given is ADME.
For series [8], the system named is Cell membrane. The experiment in a line: Disruption of membrane integrity in Bacillus subtilis ATCC 6633 assessed as increase in PI positive cells at 16 ug/ml measured after 1 hr by SYTO9/PI staining based confocal laser scanning microscope analysis. Format: subcellular. The settings on record: dose 16.0 µg/ml.

A word on the MIC: it is the least concentration at which growth counts as inhibited. What is called Papp is the rate of passage across a membrane or cell layer, normalised by area and donor concentration. With `CCCCCCCCN(CCCCCCCCNC(=N)NCC1CC1)C(=O)N(CCCCCCNC(=N)NCC1CC1)CCCCCCNC(=N)NCC1CC1`, the result in the series with Cell membrane [1], in the series with Cell membrane [2], with Cell membrane [6] and in the series on Cell membrane [8] was Active. For the same compound, the hemolysis at 0.5 h, 8 ug/ml in series [3] is 1.2%. In addition, the values for the R% in [4] and in series [5] were 63% and 0%, respectively. For the same compound, the minimum inhibitory concentration (MIC) in the series on Pseudomonas aeruginosa is 16 µg/mL (≈ 20.3 µM); with Escherichia coli, 4 µg/mL (≈ 5.09 µM). Also, the Papp at 5 h in series [7] worked out at 0.18 ×10⁻⁶ cm/s.

`N=C(NCCCCCCCCNC(N)=O)NCC1CC1.O=C(O)C(F)(F)F`: the result in the series on Cell membrane [1], with Cell membrane [2], with Cell membrane [6] and in the series with Cell membrane [8] was Active. Moreover, in [3], the hemolysis at 0.5 h, 8 ug/ml came to 0%. The R% worked out at 16% in series [4] and 7.7% in series [5]. The minimal inhibitory concentration (MIC) in the series with Pseudomonas aeruginosa worked out at 16 µg/mL; with Escherichia coli it was 2 µg/mL. For the same compound, the Papp at 5 h in series [7] amounted to 6.1 ×10⁻⁶ cm/s.

With `N=C(N)NCCCCCCCCN(CCCCCCCCNC(=N)NCC1CC1)C(=O)N(CCCCCCCCNC(=N)NCC1CC1)CCCCCCCCNC(=N)NCC1CC1.O=C(O)C(F)(F)F`, the outcome with Cell membrane [1], in the series with Cell membrane [2], with Cell membrane [6] and in the series on Cell membrane [8] was Active. In addition, the hemolysis at 0.5 h, 8 ug/ml in series [3] was 0%. In addition, the R% came out at 56% in [4] and 0% in [5]. Besides, the MIC with Pseudomonas aeruginosa came to 8 µg/mL; in the series with Escherichia coli, 0.5 µg/mL. In addition, the Papp at 5 h in series [7] was 0.26 ×10⁻⁶ cm/s.
